In one data set the test system is pRab10. The data set can be described thus: cells. The class given is cell-based, human. The conditions noted are these: for EC50: Homo sapiens, PBMC, PBMCs, read-out: EC50s (pRab10). From the text: The relative LRRK2 protein and pRab10 levels were obtained by quantifying the ratios of total LRRK2/GAPDH or Rab10-pThr73/total Rab10, respectively, and the ratios were normalized to the DMSO-treated samples. The relative LRRK2 and pRab10 protein levels were plotted against the compound concentration and fitted against “nonlinear regression, one site-fit log IC50” in GraphPad to obtain the DC50 and EC50 values. Data points are presented as mean ± standard error of the mean (SEM) from three biological independent replicates. […] The relative LRRK2 protein and pRab10 levels were obtained by quantifying the ratios of total LRRK2/ GAPDH or Rab10-pThr73/total Rab10, respectively, and the ratios were normalized to the DMSO-treated samples. The relative LRRK2 and pRab10 protein levels were plotted against the treatment time and were fitted against “nonlinear regression, one-phase decay” in GraphPad to obtain the half-life (T1/2) values. Data points are presented as mean ± SEM from three biological independent replicates. […] The relative LRRK2 levels were obtained by quantifying the ratios of total LRRK2/tubulin and normalized to the DMSO-treated samples. The relative LRRK2 levels were plotted against the compound concentration and fitted against “nonlinear regression, one site-fit log IC50” in GraphPad to obtain the DC50 values.
PBMC cells were separated from human blood from healthy volunteer donors following the existing protocol[82] and pelleted by centrifugation at 1000g for 2 min. The supernatant was discarded, and the PBMC pellet was resuspended in PBS containing 2% FBS for washing. The suspension was centrifuged at 1000g for 2 min again, and the PBMC pellet was resuspended in Roswell Park Memorial Institute (RPMI)-1640 (Gibco) media supplemented with 10% FBS. The cells were then seeded into six-well plates and treated with testing compounds at indicated concentrations and time periods. After treatment, the cells were collected into a 2 mL Eppendorf tube and centrifuged at 500g for 2 min to pellet the cells, the supernatant was discarded, and the pellet was resuspended in 1 mL PBS and centrifuged at 500g for 2 min again. The PBMC pellet was lysed with 60 μL of lysis buffer containing 50 mM tris–HCl, pH 7.5, 1% (v/v) Triton X-100, 1 mM ethylene glycol-bis(β-aminoethyl ether)-N,N,N′,N′-tetraacetic acid (EGTA), 1 mM sodium orthovanadate, 50 mM NaF, 0.1% (v/v) 2-mercaptoethanol, 10 mM 2-glycerophosphate, 5 mM sodium pyrophosphate, 0.1 μg/mL microcystin-LR (Enzo Life Sciences), 270 mM sucrose, and 0.5 mM diisopropyl fluorophosphate (DIFP) (Sigma-Aldrich, Cat# D0879) in addition to a complete EDTA-free protease inhibitor cocktail (Sigma-Aldrich Cat # 11836170001). DIFP is highly toxic and must be prepared in a fume hood to a stock solution of 0.5 M in isopropanol. The lysed cells were then centrifuged at 1500g for 15 min at 0 °C. The supernatants were collected for analysis by quantitative immunoblotting. For long-term storage, the supernatant was flash-frozen and stored at −80 °C. Protein concentrations of cell lysates were determined using the Pierce BCA Protein Assay Kit (Thermo Fisher).
Cell lysates containing a quarter of a volume of 4× NuPAGE LDS sample buffer (NP0007) supplemented with 5% β-mercaptoethanol were heated at 95 °C for 5 min. […]

For a further data set, the target named is T1, R1441C LRRK2 (Mus musculus, UniProt Q5S006, R1441C).
T1 construct: endogenous in cells; host or cells: R1441C LRRK2 MEFs
T1 sequence (Q5S006 whole entry R1441C): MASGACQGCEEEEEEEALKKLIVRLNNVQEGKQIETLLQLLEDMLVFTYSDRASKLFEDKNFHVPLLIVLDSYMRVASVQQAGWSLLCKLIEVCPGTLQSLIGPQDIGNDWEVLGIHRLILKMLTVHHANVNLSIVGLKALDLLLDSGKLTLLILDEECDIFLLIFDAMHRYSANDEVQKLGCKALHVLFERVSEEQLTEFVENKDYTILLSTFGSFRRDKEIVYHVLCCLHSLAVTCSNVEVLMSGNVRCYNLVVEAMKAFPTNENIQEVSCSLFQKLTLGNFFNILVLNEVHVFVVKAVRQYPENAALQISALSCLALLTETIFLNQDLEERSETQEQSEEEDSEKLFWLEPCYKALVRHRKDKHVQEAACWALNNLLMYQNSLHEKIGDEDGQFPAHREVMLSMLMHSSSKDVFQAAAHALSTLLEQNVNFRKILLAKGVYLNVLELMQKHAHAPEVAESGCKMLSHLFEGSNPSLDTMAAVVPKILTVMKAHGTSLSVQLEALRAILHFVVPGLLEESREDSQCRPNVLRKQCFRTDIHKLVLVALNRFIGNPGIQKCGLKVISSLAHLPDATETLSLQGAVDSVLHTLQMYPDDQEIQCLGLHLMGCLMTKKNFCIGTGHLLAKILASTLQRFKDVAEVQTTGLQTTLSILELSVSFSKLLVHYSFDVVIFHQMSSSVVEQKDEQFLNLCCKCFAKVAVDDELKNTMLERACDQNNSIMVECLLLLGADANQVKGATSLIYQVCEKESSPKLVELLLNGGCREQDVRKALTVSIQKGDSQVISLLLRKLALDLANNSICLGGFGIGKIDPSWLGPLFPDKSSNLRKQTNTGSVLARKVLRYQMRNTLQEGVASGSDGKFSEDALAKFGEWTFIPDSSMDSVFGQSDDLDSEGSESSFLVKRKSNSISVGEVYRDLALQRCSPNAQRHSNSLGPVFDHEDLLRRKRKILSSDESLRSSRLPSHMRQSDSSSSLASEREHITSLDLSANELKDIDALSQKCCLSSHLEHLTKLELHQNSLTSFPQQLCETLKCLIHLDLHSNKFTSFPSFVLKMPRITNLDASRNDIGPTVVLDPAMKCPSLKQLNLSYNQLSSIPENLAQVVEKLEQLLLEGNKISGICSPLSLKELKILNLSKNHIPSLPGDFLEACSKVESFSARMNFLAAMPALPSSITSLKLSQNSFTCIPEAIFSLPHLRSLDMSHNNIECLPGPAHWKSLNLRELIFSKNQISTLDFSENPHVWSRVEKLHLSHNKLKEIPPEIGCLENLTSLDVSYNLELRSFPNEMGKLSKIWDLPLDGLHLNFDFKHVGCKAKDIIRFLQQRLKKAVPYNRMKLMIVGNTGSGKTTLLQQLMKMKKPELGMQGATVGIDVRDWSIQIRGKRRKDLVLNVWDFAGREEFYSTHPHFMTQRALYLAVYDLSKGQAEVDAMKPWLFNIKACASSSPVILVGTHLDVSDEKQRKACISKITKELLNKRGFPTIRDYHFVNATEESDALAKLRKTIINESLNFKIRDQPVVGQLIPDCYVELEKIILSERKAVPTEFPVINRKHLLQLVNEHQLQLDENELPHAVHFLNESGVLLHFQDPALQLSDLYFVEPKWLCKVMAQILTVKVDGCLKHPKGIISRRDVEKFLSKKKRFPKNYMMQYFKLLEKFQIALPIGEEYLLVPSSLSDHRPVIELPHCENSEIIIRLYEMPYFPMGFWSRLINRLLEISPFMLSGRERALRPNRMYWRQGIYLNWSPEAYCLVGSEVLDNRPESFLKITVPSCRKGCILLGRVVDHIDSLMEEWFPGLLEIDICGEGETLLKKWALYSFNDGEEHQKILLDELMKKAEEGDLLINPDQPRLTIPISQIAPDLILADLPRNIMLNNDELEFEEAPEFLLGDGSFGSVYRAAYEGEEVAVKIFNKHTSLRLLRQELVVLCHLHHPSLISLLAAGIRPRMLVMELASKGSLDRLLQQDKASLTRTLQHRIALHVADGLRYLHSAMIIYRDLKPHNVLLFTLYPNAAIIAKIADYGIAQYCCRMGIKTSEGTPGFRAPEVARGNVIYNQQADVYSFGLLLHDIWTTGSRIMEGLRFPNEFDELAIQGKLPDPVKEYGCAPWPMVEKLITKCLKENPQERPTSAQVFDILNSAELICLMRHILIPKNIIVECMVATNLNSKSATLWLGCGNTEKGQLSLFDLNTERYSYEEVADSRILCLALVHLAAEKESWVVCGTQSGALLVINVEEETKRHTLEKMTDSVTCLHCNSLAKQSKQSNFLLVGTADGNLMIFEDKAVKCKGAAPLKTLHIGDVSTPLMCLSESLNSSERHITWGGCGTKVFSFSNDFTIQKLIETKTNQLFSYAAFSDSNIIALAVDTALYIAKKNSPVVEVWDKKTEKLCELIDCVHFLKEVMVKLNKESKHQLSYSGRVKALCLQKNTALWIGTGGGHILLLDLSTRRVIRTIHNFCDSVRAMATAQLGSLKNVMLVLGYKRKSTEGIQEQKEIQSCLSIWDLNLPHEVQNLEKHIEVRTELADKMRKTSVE
Put plainly: LRRK2 degradation in R1441C LRRK2 MEFs. In kind it is cell-based. To be noted: 4 h.

Molecules are shown by their SMILES. Read-outs that look alike come from different tables or passages of the source.

The values that follow come from article PMC9501899 (Journal of the American Chemical Society, 2022).

`CNc1nc(Nc2ccc(C(=O)N3CCN(C[C@H]4CC[C@H](CSC(C)(C)[C@H](NC(=O)C5(F)CC5)C(=O)N5C[C@H](O)CC5C(=O)NCc5ccc(-c6scnc6C)cc5)CC4)CC3)cc2OC)ncc1Cl` (stereo partly drawn) [XL01126, (2S,4R)-1-((R)-3-((((1R,4R)-4-((4-(4-((5-Chloro-4-(methylamino)pyrimidin-2-yl)amino)-3-methoxybenzoyl)piperazin-1-yl)methyl)cyclohexyl)methyl)thio)-2-(1-fluorocyclopropane-1-carboxamido)-3-methylbutanoyl)-4-hydroxy-N-(4-(4-methylthiazol-5-yl)benzyl)pyrrolidine-2-carboxamide]: the EC50 in the data set on pRab10 (4 h) was found to be 0.069 µM; in the data set on pRab10 (24 h), 0.02 µM. Further, in the data set on pRab10 (human, pbmc, 300 nM), the “pRab10 T1/2” value is on record as 0.38 h. Further, on R1441C LRRK2, the “DC50s (LRRK2)” value is 15 nM (4 h).
On to `CNc1nc(Nc2ccc(C(=O)N3CCN(C[C@H]4CC[C@H](CSC(C)(C)[C@H](NC(=O)C5(F)CC5)C(=O)N5C[C@@H](O)C[C@H]5C(=O)NCc5ccc(-c6scnc6C)cc5)CC4)CC3)cc2OC)ncc1Cl` [cis-XL01126, (2S,4S)-1-((R)-3-((((1R,4R)-4-((4-(4-((5-Chloro-4-(methylamino)pyrimidin-2-yl)amino)-3-methoxybenzoyl)piperazin-1-yl)methyl)cyclohexyl)methyl)thio)-2-(1-fluorocyclopropane-1-carboxamido)-3-methylbutanoyl)-4-hydroxy-N-(4-(4-methylthiazol-5-yl)benzyl)pyrrolidine-2-carboxamide], for which the EC50 with pRab10 (4 h) was around 3 µM. The EC50 in the data set on pRab10 (24 h) turned out to be 0.705 µM. In addition, on R1441C LRRK2, the “DC50s (LRRK2)” value is “NDO” and the “Dmax (LRRK2)” value is listed as “NDO”.
